Results as given in US10087469B2, “Method of producing sugar solution, sugar solution, and method of producing ethanol” (Toray Industries, Inc., priority 2012, dated 2018).

System: Pichia stipitis NBRC1687 strain
Assay: Growth test of Pichia stipitis using model sugar solution (YPDX medium with additive)
Type: cell-based
Design: Xylose concentration in the medium / Glucose concentration in the medium: unit not given here
Settings: for growth inhibitory effect compared with coumaric acid: particularly in consumption rate of glucose
Method: In main culture of “A. Growth Test of Pichia Stipitis using Model Sugar solution” described below, any one of coumaramide, coumaric acid, and ferulamide was added in a concentration of 2 ppm to 200 ppm as an additive in a medium, and the medium was subjected to a growth test. As a positive control, a YPDX medium free of an additive was subjected to the same test.
A. Growth Test of Pichia Stipitis Using Model Sugar Solution
A Pichia stipitis NBRC1687 strain was statically cultured at 25° C. in a YPDX agar medium produced by adding 2% agar to a YPDX medium shown in Table 3 below (prepreculture). One of colonies formed on the agar medium was inoculated into 10 mL of the YPDX medium with a platinum loop, and cultured at 25° C. and 120 spm in a test tube with a volume of 20 mL for 48 hours under shaking (preculture). One mL of medium after the preculture was added to 9 mL of YPDX medium, and culture was further continued at 25° C. and 60 spm in a test tube with a volume of 20 mL (main culture). 0, 24, and 48 hours after initiation of the culture, sampling was performed, the monosaccharide concentration and the absorbance (OD660) were measured. Thus, growth of fungus bodies was observed.

[1] = additive 2 ppm, 0 h of main culture
[2] = additive 2 ppm, 24 h of main culture
[3] = additive 2 ppm, 48 h of main culture
[4] = additive 20 ppm, 0 h of main culture
[5] = additive 20 ppm, 24 h of main culture
[6] = additive 20 ppm, 48 h of main culture
[7] = additive 200 ppm, 0 h of main culture
[8] = additive 200 ppm, 24 h of main culture
[9] = additive 200 ppm, 48 h of main culture

Row | Compound | fermentation inhibitor in the culture of Pichia stipitis | Glucose concentration in the medium [1] | Xylose concentration in the medium [1] | Glucose concentration in the medium [2] | Xylose concentration in the medium [2] | Glucose concentration in the medium [3] | Xylose concentration in the medium [3] | Glucose concentration in the medium [4] | Xylose concentration in the medium [4] | Glucose concentration in the medium [5] | Xylose concentration in the medium [5] | Glucose concentration in the medium [6] | Xylose concentration in the medium [6] | Glucose concentration in the medium [7] | Xylose concentration in the medium [7] | Glucose concentration in the medium [8] | Xylose concentration in the medium [8] | Glucose concentration in the medium [9] | Xylose concentration in the medium [9] | growth inhibitory effect compared with coumaric acid
1 | COc1cc(/C=C/C(N)=O)ccc1O [Ferulamide, ferulamide] | fermentation inhibitors | 10 | 10 | 2.3 | 2.3 | 0 | 0 | 10 | 10 | 6.6 | 9.3 | 0 | 0 | 10 | 10 | 6.7 | 9.7 | 0 | 5.2 | superior to coumaric acid in growth inhibitory
2 | NC(=O)/C=C/c1ccc(O)cc1 [Coumaramide, coumaramide] | fermentation inhibitors | 10 | 10 | 2.3 | 2.3 | 0 | 0 | 10 | 10 | 4.82 | 9.7 | 0 | 0 | 10 | 10 | 5.9 | 9.5 | 0 | 0.4 | superior to coumaric acid in growth inhibitory
3 | O=C(O)/C=C/c1ccc(O)cc1 [Coumaric Acid, coumaric acid] |  | 10 | 10 | 2.6 | 2.6 | 0 | 0 | 10 | 10 | 2.6 | 8.7 | 0 | 0 | 10 | 10 | 3.6 | 9.2 | 0 | 0 | 
